In publication PMC8446577, “Novel cold-adapted raw-starch digesting α-amylases from Eisenia fetida: Gene cloning, expression, and characterization” (Biotechnology Reports, 2021):

Molecular target: T1, rEf-Amy I (Eisenia fetida, UniProt A0A173N065)
T1 construct: gene alpha-amylase; mature enzyme without signal peptide, secreted from Pichia pastoris GS115 (pPICZalphaA, codon-optimised gene), HisTrap purified, 57 kDa by SDS-PAGE; precursor 510 residues; borders from printed domain limits E18-V510
T1 sequence (A0A173N065 18-510): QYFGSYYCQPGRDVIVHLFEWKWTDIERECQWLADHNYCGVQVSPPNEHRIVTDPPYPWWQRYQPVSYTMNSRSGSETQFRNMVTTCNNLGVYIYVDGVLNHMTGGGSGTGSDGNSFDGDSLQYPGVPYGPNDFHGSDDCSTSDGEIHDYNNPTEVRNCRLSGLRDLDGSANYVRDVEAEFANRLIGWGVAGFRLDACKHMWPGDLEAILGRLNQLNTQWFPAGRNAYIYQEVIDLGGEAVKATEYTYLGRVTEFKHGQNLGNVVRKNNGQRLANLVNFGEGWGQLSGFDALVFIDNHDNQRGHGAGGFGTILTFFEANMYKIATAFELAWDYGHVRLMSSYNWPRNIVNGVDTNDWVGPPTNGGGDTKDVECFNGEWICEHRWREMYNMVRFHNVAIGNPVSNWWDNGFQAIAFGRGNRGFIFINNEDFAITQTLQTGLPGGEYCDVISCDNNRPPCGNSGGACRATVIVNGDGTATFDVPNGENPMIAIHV
Assay: HPLC (RI detection) of hydrolysis products
Type: biochemical
Details: 5 mM substrate, 50 mM sodium acetate pH 5.5, 37 °C

Row | Compound | HPLC (RI detection) of hydrolysis products
1 | OC[C@H]1O[C@H](O[C@H]2[C@H](O)[C@@H](O)[C@@H](O[C@H]3[C@H](O)[C@@H](O)[C@@H](O[C@H]4[C@H](O)[C@@H](O)C(O)O[C@@H]4CO)O[C@@H]3CO)O[C@@H]2CO)[C@H](O)[C@@H](O)[C@@H]1O (some centres unmarked) [maltotetraose] | from Mal4 was Mal (Fig. 5B)
2 | OC[C@H]1O[C@H](O[C@H]2[C@H](O)[C@@H](O)[C@@H](O[C@H]3[C@H](O)[C@@H](O)[C@@H](O[C@H]4[C@H](O)[C@@H](O)[C@@H](O[C@H]5[C@H](O)[C@@H](O)C(O)O[C@@H]5CO)O[C@@H]4CO)O[C@@H]3CO)O[C@@H]2CO)[C@H](O)[C@@H](O)[C@@H]1O (some centres unmarked) [maltopentaose] | In the case of Ef-Amy I, the major hydrolysis products from Mal5 were Mal and Mal3
